Measured values published in patent US20170281602A1, “SOLID FORMS OF (S)-2-METHOXY-3--PROPIONIC ACID AND OF SALTS THEREOF” (Hoffmann-La Roche Inc., priority 2012, published 2017).

Legend:
Format in all cases: physicochemical
[1] = Thermal solid-form transformation (DSC, temperature controlled XRPD); conditions: for glass transition temperature, above which recrystallization is likely to occur: midpoint; for temperature of thermal transformation into Sodium salt Form A: incubation at high temperature
Procedure: DSC curves were recorded using a Mettler-Toledo™ differential scanning calorimeter DSC820, DSC821 or DSC1 with a FRS05 sensor. System suitability tests were performed with indium as reference substance and calibrations were carried out using indium, benzoic acid, biphenyl and zinc as reference substances.
(§1) For the measurements, approximately 2-6 mg of sample were placed in aluminum pans, accurately weighed and hermetically closed with perforation lids. Prior to measurement, the lids were automatically pierced resulting in approx. 1.5 mm pin holes. The samples were then heated under a flow of nitrogen of about 100 mL/min using heating rates of usually 10 K/min.
(§2) X-ray powder diffraction patterns were recorded at ambient conditions in transmission geometry with a STOE STADI P diffractometer (Cu K ? ? radiation, primary monochromator, position sensitive detector, angular range 3° to 42° 2Theta, approximately 60 minutes total measurement time). Approximately 25 mg of sample were prepared and analyzed without further processing (e.g. grinding or sieving) of the substance.

[2] = Humidity-induced solid-form transformation (humidity controlled XRPD, DVS); conditions: at 25° C.
Procedure: (§3) DVS isotherms were collected on a DVS-1, DVS-HT and DVS Intrinsic (SMS Surface Measurements Systems) moisture balance system. The sorption/desorption isotherms were measured stepwise in a range of 0% RH to 90% RH at 25° C. A weight change of <0.002 mg/min was chosen as criterion to switch to the next level of relative humidity (with a maximum equilibration time of 24 hours, if the weight criterion was not met). The data were corrected for the initial moisture content of the samples; that is, the weight after drying the sample at 0% RH was taken as the reference point.
as §2

[3] = Relative stability of the solid forms (statements in words); conditions: for solid form stability: in words
[4] = Hygroscopicity of the solid forms (DVS sorption/desorption isotherms); conditions: in words
Procedure: as §3

[5] = Competing slurry experiment between Free acid Forms A, B and C; conditions: isopropyl acetate, 20 and 60° C., seeded with Free acid Form B and Form C, 14 days, wet stage XRPD
Procedure: Description of a typical competing slurry experiment:
200 and 300 mg of form A of (S)-2-methoxy-3-{4-[2-(5-methyl-2-phenyl-oxazol-4-yl)-ethoxy]-benzo[b]thiophen-7-yl}-propionic acid were each suspended in ca. 1 mL of isopropyl acetate at 20 and 60° C., respectively. After 24 h the two suspensions were seeded with approximately 10 mg of Free acid Form B and Free acid Form C. After 14 days the crystals were harvested by filtration and analyzed in wet stage by XRPD.

[6] = Decomposition temperature of the solid form (thermal analysis)
Procedure: TGA analysis was performed on a Mettler-Toledo™ thermogravimetric analyzer (TGA850 or TGA851). System suitability tests were performed with Hydranal as reference substance and calibrations using aluminum and indium as reference substances.
as §1, with “thermogravimetric analyses, approx. 5 to 10” for “measurements, approximately 2-6”, “50” for “100”, “using a” for “using”, “rate” for “rates”, “5” for “usually 10”

## CO[C@@H](Cc1ccc(OCCc2nc(-c3ccccc3)oc2C)c2ccsc12)C(=O)[O-].[Na+] [Sodium salt Form A, sodium (S)-2-methoxy-3-{4-[2-(5-methyl-2-phenyl-oxazol-4-yl)-ethoxy]-benzo[b]thiophen-7-yl}-propanoate]
[1]
  temperature of transformation into Sodium salt Form B: > 208 °C
[2]
  relative humidity above which transformation into hydrated form occurs: > 80 % RH

## CO[C@@H](Cc1ccc(OCCc2nc(-c3ccccc3)oc2C)c2ccsc12)C(=O)O [Free acid Form E, (S)-2-methoxy-3-{4-[2-(5-methyl-2-phenyl-oxazol-4-yl)-ethoxy]-benzo[b]thiophen-7-yl}-propionic acid]
[3]
  solid form stability: transforms into Free acid Form B upon mild heating

## CO[C@@H](Cc1ccc(OCCc2nc(-c3ccccc3)oc2C)c2ccsc12)C(=O)[O-].[Na+] [Sodium salt Form C, sodium (S)-2-methoxy-3-{4-[2-(5-methyl-2-phenyl-oxazol-4-yl)-ethoxy]-benzo[b]thiophen-7-yl}-propanoate]
[2]; humidity controlled XRPD
  relative humidity below which reversible transformation into a dehydrated solid form occurs: < 15 %-RH

## CO[C@@H](Cc1ccc(OCCc2nc(-c3ccccc3)oc2C)c2ccsc12)C(=O)O [Free acid Form C, (S)-2-methoxy-3-{4-[2-(5-methyl-2-phenyl-oxazol-4-yl)-ethoxy]-benzo[b]thiophen-7-yl}-propionic acid]
[1]; extrapolated peak DSC
  temperature of transformation into Free acid Form B: ca. 150 °C
[3]; at ambient temperature
  thermodynamic stability among polymorphs: thermodynamically less stable than Free acid Form A and Free acid Form B

## CO[C@@H](Cc1ccc(OCCc2nc(-c3ccccc3)oc2C)c2ccsc12)C(=O)O [Free acid Form A, (S)-2-methoxy-3-{4-[2-(5-methyl-2-phenyl-oxazol-4-yl)-ethoxy]-benzo[b]thiophen-7-y1}-propionic acid]
[4]
  hygroscopicity: non-hygroscopic
[1]; temperature controlled XRPD
  temperature of transformation into Free acid Form B: > 85 °C
[5]
  solid form obtained in competing slurry: pure Free acid Form A is obtained
[3]; below ca. 60° C.
  thermodynamic stability among polymorphs: thermodynamically most stable polymorph

## CO[C@@H](Cc1ccc(OCCc2nc(-c3ccccc3)oc2C)c2ccsc12)C(=O)O [Free acid Form D, (S)-2-methoxy-3-{4-[2-(5-methyl-2-phenyl-oxazol-4-yl)-ethoxy]-benzo[b]thiophen-7-yl}-propionic acid]
[3]
  solid form stability: transforms into Free acid Form B upon storage at ambient conditions over time

## diisopropylammonium (S)-2-methoxy-3-{4-[2-(5-methyl-2-phenyl-oxazol-4-yl)-ethoxy]-benzo[b]thiophen-7-yl}-propanoate [Diisopropylammonium salt Form A]
[4]
  hygroscopicity: slightly hygroscopic
[6]
  decomposition temperature: approx. 100 °C

## CO[C@@H](Cc1ccc(OCCc2nc(-c3ccccc3)oc2C)c2ccsc12)C(=O)O [amorphous form of the Free acid, (S)-2-methoxy-3-{4-[2-(5-methyl-2-phenyl-oxazol-4-yl)-ethoxy]-benzo[b]thiophen-7-yl}-propionic acid]
[4]; listed as amorphous form of (S)-2-methoxy-3-{4-[2-(5-methyl-2-phenyl-oxazol-4-yl)-ethoxy]-
  hygroscopicity: hygroscopic
[1]
  glass transition temperature, above which recrystallization is likely to occur: approx. 44 °C

## CO[C@@H](Cc1ccc(OCCc2nc(-c3ccccc3)oc2C)c2ccsc12)C(=O)[O-].[Na+] [Sodium salt Form B, sodium (S)-2-methoxy-3-{4-[2-(5-methyl-2-phenyl-oxazol-4-yl)-ethoxy]-benzo[b]thiophen-7-yl}-propanoate]
[1]
  temperature of thermal transformation into Sodium salt Form A: > 120 °C
[3]
  solid form stability: metastable

## CO[C@@H](Cc1ccc(OCCc2nc(-c3ccccc3)oc2C)c2ccsc12)C(=O)[O-].[Na+] [Sodium salt amorphous form, sodium (S)-2-methoxy-3-{4-[2-(5-methyl-2-phenyl-oxazol-4-yl)-ethoxy]-benzo[b]thiophen-7-yl}-propanoate]
[4]
  hygroscopicity: hygroscopic
[1]
  temperature of thermal transformation into Sodium salt Form A: > 115 °C
  glass transition temperature, above which recrystallization is likely to occur: approx. 65.5 °C
[2]
  relative humidity above which transformation into hydrated form occurs: Above 50 % RH

## CO[C@@H](Cc1ccc(OCCc2nc(-c3ccccc3)oc2C)c2ccsc12)C(=O)O [Free acid Form B, (S)-2-methoxy-3-{4-[2-(5-methyl-2-phenyl-oxazol-4-yl)-ethoxy]-benzo[b]thiophen-7-y1}-propionic acid]
[1]; extrapolated peak DSC
  temperature below which spontaneous transformation into Free acid Form A occurs: < −5 °C
[1]; observed at this temperature or below
  temperature of spontaneous solid-solid retransformation into Free acid Form A: ≤ 45 °C
